# Assay results published in patent US12528796B2, “Modulators of RAS GTPase” (Tosk, Inc., priority 2019, dated 2026).
# Tested on: SW620 cells (KRAS-G12V)
# Test: Cell proliferation / cytotoxicity assay (CellTiter-Glo 2.0)
# Assay type: cell-based
# Conditions: Homo sapiens, SW-620, 72 h, SW620 cell line (KRAS-G12V), 72 hours incubation, luminescence (CellTiter-Glo 2.0); read-out: 5W620 IC50
# Procedure: Compounds are assayed for inhibition of cell proliferation and killing cancer cells. Cytotoxicity assays are conducted according to the following general procedure. SW620 cells (ATCC CCL-227) are maintained in DMEM Low Glucose (Corning 10-014-CV) media supplemented with 10% fetal bovine serum and 1% PenStrep and grown at 37° C. in 5% CO2. Cells are plated into 96 well flat bottom plates (2 million/plate, ˜20,000/well, 200 μL media/well). The cells are allowed to settle and adhere to the plate bottom overnight. Compounds are diluted in media from a 10 mM stock solution starting at 50 μM, using 2-fold dilutions, in a column in a 96-well plate. Media is removed from the plate containing cells and replaced with media containing diluted compounds. Plates are incubated 72 hours at 37° C. in 5% CO2. Plates were allowed to come to room temperature and 100 μL CellTiter-Glo 2.0 reagent (Promega, G924C) is added at room temperature. Plates are shaken for 2 minutes, then allowed to stand for 15 minutes. Luminescence is read with FLx800 (BioTek Instruments). Data is plotted with GraphPad Prizm 8.0.
# Dose response curves for the cytotoxicity of exemplary compounds against SW620 (KRAS-G12V) and MIA PaCa-2 (KRAS-G12C) cell lines are shown in FIG. 1A-1J.
row,SMILES,IC50 [µM]
1,Cc1nc(NC2CCN(Cc3ccc(Cl)cc3)CC2)nc2ccc(-c3cncc4[nH]ccc34)cc12 [Compound 58],5 to 10
2,Cc1nc(NC2CCN(C(=O)c3ccc(Cl)cc3)[C@@H](C)C2)nc2ccc(-c3cccc4c3OCCO4)cc12 (stereo partly shown) [Compound 11],5 to 10
3,Cc1nc(NC2CCN(C(=O)c3ccc(Cl)cc3)CC2)nc2ccc(-c3cccc4c3CCNC4)cc12 [Compound 7],5 to 10
4,Cc1nc(NC2CCN(Cc3ccc(Cl)cc3)CC2)nc2ccc(-c3cccc4c3NC(=O)CO4)cc12 [Compound 62],< 5
5,Cc1ccc2[nH]ncc2c1-c1ccc2nc(NC3CCN(Cc4ccc(Cl)cc4)CC3)nc(C)c2c1 [Compound 24],< 5
6,Cc1nc(N2CC[C@H](N3Cc4ccccc4CC3=O)C2)nc2ccc(-c3cccc4c3OCCO4)cc12 [Compound 10],5 to 10
7,Cc1nccc(-c2ccc3nc(N[C@@H]4CC[C@H]5CC[C@@H](C4)N5Cc4ccc(Cl)cc4)nc(C)c3c2)c1Cl [Compound 74],< 5
